The term MRT denotes a mean duration of stay, worked out from the concentration-time curve. One may read the bioavailability as the share of a dose that reaches the circulation, judged against a reference dose that is usually intravenous. Low readings indicate poor availability, high ones good availability. By pIC50 is commonly meant the negative decadic logarithm of the IC50, by convention in mol/L.

The source of these data is patent US10143681B2, “Factor XIa inhibitors” (MERCK SHARP & DOHME CORP., priority 2016, dated 2018).

Data set [1] can be described thus: Rat Pharmacokinetic Screening IV/PO. Particulars: male; for clearance: plasma clearance, IV administration; for MRT / bioavailability: plasma; for MRT: mean residence time; for bioavailability: oral bioavailability, oral vs. IV dosing. It is filed as in vivo. The procedure:
Plasma pharmacokinetic parameters for clearance (Cl), volume of distribution, mean residence time (MRT) and oral bioavailability (% F) were determined in rats from oral administration and IV administration studies. 4 male rats, typically weighing 225-260 gram, were fasted overnight prior to dosing. Compounds were prepared for oral and IV dosing by addition to a vehicle, depending on the dose used. For a typical preparation, 1 mg per mL (IV) or 1.5 mg per mL (oral) of test compound was added to vehicle comprised of 20% dimethyl sulfoxide (DMSO), 60% polyethylene glycol 400 (PEG400) and 20% water. IV formulation was administered to 2 rats via pre-cannulated jugular vein, and oral dosing was administered to 2 rats via oral gavage. Blood was collected by pre-cannulated artery, typically at predose, 2, 8, 15, 30 min, 1, 2, 4, 6, and 8 hr postdose for IV, and at predose, 15, 30 min, 1, 2, 4, 6, 8 hr for oral dosing. Samples were collected in K2EDTA tubes, stored on ice, and centrifuged. Plasma was transferred to a micro titer plate and stored at −70° C. until analysis. Plasma samples were extracted using protein precipitation and analyzed by liquid chromatography separation followed by mass spec detection (LC-MS/MS), using a standard curve for each compound. Plasma pharmacokinetic parameters were calculated for IV and oral dosing data by non-compartmental methods. Oral bioavailability was determined as the ratio of the dose-normalized plasma area under the curve (AUC) following oral dosing vs. IV dosing.

Data set [2] has as its target human Factor XIa (Homo sapiens (Human), UniProt P03951). As to the kind of experiment: Factor XIa Assay. It is filed as biochemical. Particulars: human Factor XIa 0.04 nM, 30 min pre-incubation at 25° C., substrate GPR-AFC; read-out: FXIa IC50. Put shortly:
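IC50 values were obtained from four-parameter log(inhibitor)-response fits of % inhibition, then converted to Ki using Cheng-Prusoff. GPR-AFC hydrolysis was read at 400/505 nm after 60 min at 25 °C.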

Data set [3] addresses Human plasma kallikrein (Homo sapiens (Human), UniProt P03952). As to the kind of experiment: Kallikrein Assay. It is filed as biochemical. The following applies: purified Human plasma kallikrein 0.5 nM, substrate Acetyl-K-P-R-AFC; read-out: P. KLK IC50. The procedure:
The effectiveness of a compound of the present invention as an inhibitor of Kallikrein can be determined using a relevant purified serine protease, and an appropriate synthetic substrate. The rate of hydrolysis of the chromogenic or fluorogenic substrate by the relevant serine protease was measured both in the absence and presence of compounds of the present invention. Assays were conducted at room temperature or at 37° C. […] A decrease in the rate of fluorescence change in the presence of inhibitor is indicative of enzyme inhibition. Such methods are known to one skilled in the art. The results of this assay are expressed as the half-maximal inhibitory concentrations (IC50), or the inhibitory constant, Ki.
Kallikrein determinations were made in 50 mM HEPES buffer at pH 7.4 containing 150 mM NaCl, 5 mM CaCl2, and 0.1% PEG 8000 (polyethylene glycol; Fisher Scientific). Determinations were made using purified Human plasma kallikrein at a final concentration of 0.5 nM (Enzyme Research Laboratories) and the synthetic substrate, Acetyl-K-P-R-AFC (Sigma # C6608) at a concentration of […].
Times required to achieve equilibration between enzyme and inhibitor were determined in control experiments. The reactions were performed under linear progress curve conditions and fluorescence increase measured at 405 Ex/510 Em nm. […] IC50 was determined by inflection point from a four parameter logistic curve fit. Ki was calculated using the Cheng Prusoff equation, Ki=IC50/(1+([S]/Km)).

Data set [4] has as its system Human plasma (intrinsic coagulation cascade). As to the kind of experiment: Activated Partial Thromboplastin Time (aPTT) Assay. Particulars: concentration that causes a 50% (1.5×) increase of clot time over vehicle. Put shortly:
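Inhibitors spiked into pooled citrated normal-donor human plasma (aPTT 28-40 seconds), run on automated coagulation analyzer: ellagic acid activation of Factor XII, then clot time after recalcification. Reported as concentration giving 50% (1.5×) prolongation over vehicle clot time.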

pIC50: −log10 of the molar value.

Human plasma kallikrein, sequence (P03952 391-638): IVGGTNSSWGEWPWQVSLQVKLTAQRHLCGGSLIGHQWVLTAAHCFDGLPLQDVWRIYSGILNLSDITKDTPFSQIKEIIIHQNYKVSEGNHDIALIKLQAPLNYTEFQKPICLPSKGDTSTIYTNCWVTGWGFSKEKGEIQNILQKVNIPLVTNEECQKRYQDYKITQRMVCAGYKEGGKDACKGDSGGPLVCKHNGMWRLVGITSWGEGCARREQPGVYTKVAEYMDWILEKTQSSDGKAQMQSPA
Human plasma kallikrein, sequence (P03952 20-390 partner): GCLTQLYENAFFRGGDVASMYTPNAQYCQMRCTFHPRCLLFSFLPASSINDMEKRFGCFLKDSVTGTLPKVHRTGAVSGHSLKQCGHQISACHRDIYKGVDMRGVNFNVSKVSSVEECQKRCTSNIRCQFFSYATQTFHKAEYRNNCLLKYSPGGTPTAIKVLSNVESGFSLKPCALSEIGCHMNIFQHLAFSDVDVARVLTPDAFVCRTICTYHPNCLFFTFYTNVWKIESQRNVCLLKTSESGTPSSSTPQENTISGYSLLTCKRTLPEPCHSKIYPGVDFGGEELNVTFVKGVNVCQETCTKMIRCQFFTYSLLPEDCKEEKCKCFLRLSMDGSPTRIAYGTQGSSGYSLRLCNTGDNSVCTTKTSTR
human Factor XIa, sequence (P03951 388-625): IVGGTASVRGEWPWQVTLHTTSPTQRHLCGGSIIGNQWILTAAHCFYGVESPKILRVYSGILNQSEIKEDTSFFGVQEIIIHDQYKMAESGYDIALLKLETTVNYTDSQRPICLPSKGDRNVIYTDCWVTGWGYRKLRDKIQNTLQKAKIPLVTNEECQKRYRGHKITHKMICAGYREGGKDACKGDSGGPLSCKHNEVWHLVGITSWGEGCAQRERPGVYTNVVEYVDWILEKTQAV
human Factor XIa, sequence (P03951 19-387 partner): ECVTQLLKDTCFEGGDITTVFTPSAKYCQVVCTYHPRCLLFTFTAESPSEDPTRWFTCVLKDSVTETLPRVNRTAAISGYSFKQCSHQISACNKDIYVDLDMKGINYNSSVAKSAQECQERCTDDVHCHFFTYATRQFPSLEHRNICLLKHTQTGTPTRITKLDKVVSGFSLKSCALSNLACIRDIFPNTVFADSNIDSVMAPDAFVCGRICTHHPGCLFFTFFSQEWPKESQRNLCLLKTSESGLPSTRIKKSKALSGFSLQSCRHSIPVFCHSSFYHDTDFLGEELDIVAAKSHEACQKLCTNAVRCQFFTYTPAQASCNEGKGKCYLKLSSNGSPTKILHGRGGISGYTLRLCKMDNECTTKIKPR

For the compound `O=C(O)c1ccc(NC(=O)[C@H](CC2CC2)c2ccc(-c3c(C(F)F)ccc(Cl)c3F)c[n+]2[O-])cc1` (mixture of isomers) [Example 23, (S)- and (R)-2-(1-((4-carboxyphenyl)amino)-3-cyclopropyl-1-oxopropan-2-yl)-5-(3-chloro-6-(difluoromethyl)-2-fluorophenyl)pyridine 1-oxide], in data set [1], the clearance was 1.9 mL/min/kg, the mean residence time MRT amounted to 2.9 h and the bioavailability came to 89%. Besides, in data set [2], the pIC50 is 9.05. Further, the pIC50 in data set [3] is 7.66.

In the case of `O=C(O)c1ccc(NC(=O)[C@H](CC2CCC2)c2ccc(-c3c(C(F)F)ccc(Cl)c3F)c[n+]2[O-])cc1` (mixture of isomers) [Example 4, (S)- and (R)-2-(1-((4-Carboxyphenyl)amino)-3-cyclobutyl-1-oxopropan-2-yl)-5-(3-chloro-6-(difluoromethyl)-2-fluorophenyl)pyridine 1-oxide], in data set [1], the clearance stood at 5.1 mL/min/kg, the MRT came to 2.5 h and the bioavailability came to 34%. Further, the pIC50 in data set [2] is 9.44. Further, in data set [3], the pIC50 is 8.33.

On to `O=C(O)c1ccc(NC(=O)C(C[C@H]2CC[C@H](O)CC2)c2ccc(-c3c(C(F)F)ccc(Cl)c3F)c[n+]2[O-])cc1` (single isomer, unassigned) [Example 37, (R)- or (S)-2-(1-((4-carboxyphenyl)amino)-3-((1r,4r)-4-hydroxycyclohexyl)-1-oxopropan-2-yl)-5-(3-chloro-6-(difluoromethyl)-2-fluorophenyl)pyridine 1-oxide], for which, in data set [4], the “aPTT (1.5x)” value was determined as 0.4 µM. Besides, the pIC50 in data set [2] was 9.48; in data set [3], 8.24.

Take `O=C(O)c1ccc(NC(=O)C(CC2CC2C(F)(F)F)c2ccc(-c3c(OC(F)F)ccc(Cl)c3F)c[n+]2[O-])cc1` (single isomer, unassigned) [Example 109, 2-(1-((4-carboxyphenyl)amino)-1-oxo-3-(2-(trifluoromethyl)cyclopropyl)propan-2-yl)-5-(3-chloro-6-(difluoromethoxy)-2-fluorophenyl)pyridine 1-oxide]: the “aPTT (1.5x)” value in data set [4] is 0.76 µM. In addition, the values for the pIC50 in data set [2] and in data set [3] were 8.92 and 7.60, respectively.

Regarding `C[C@]1(O)CC[C@H](CC(C(=O)Nc2ccc(C(=O)O)cc2)c2ccc(-c3c(OC(F)F)ccc(Cl)c3F)c[n+]2[O-])CC1` (single isomer, unassigned) [Example 43, 2-(1-((4-carboxyphenyl)amino)-3-((1r,4r)-4-hydroxy-4-methylcyclohexyl)-1-oxopropan-2-yl)-5-(3-chloro-6-(difluoromethoxy)-2-fluorophenyl)pyridine 1-oxide], the “aPTT (1.5x)” value in data set [4] came out at 0.55 µM. For the same compound, the pIC50 in data set [2] was 9.35; in data set [3], 7.70.

Consider `O=C(O)c1ccc(NC(=O)C(CC2CC2)c2ccc(-c3cc(Cl)ccc3C(F)F)c[n+]2[O-])cc1` (single isomer, unassigned) [Example 29, (R)- or (S)-2-(1-((4-carboxyphenyl)amino)-3-cyclopropyl-1-oxopropan-2-yl)-5-(5-chloro-2-(difluoromethyl)phenyl)pyridine 1-oxide], for which the “aPTT (1.5x)” value in data set [4] worked out at 2.07 µM. Further, the pIC50 in data set [2] is 8.37; in data set [3], 7.08.

For `O=C(O)c1ccc(NC(=O)C(CC2CC2)c2ccc(-c3cc(Cl)ccc3OC(F)F)c[n+]2[O-])cc1` (single isomer, unassigned) [Example 7, (R)- or (S)-4-[(2-{5-[5-chloro-2-(difluoromethoxy)phenyl]-1-oxidopyridin-2-yl}-3-cyclopropylpropanoyl)amino] benzoic acid], the “aPTT (1.5x)” value in data set [4] is 16.38 µM. The pIC50 in data set [2] is 8.12; in data set [3] it was 6.58.

With `C[C@H]1C[C@@H]1C[C@@H](C(=O)Nc1ccc(C(=O)O)cc1)c1ccc(-c2c(OC(F)F)ccc(Cl)c2F)c[n+]1[O-]` (single isomer, unassigned) [Example 55], in data set [4], the “aPTT (1.5x)” value came to 0.53 µM. In addition, in data set [1], the clearance is 4.3 mL/min/kg, the mean residence time MRT was found to be 2.6 h and the bioavailability is 63%. For the same compound, the pIC50 in data set [2] was 9.42.

Turning to `O=C(O)c1ccc(NC(=O)C(CC2CC2)c2ccc(-c3cc(Cl)ccc3C(F)(F)F)c[n+]2[O-])cc1` (single isomer, unassigned) [Example 25, (R)- or (S)-2-(1-((4-carboxyphenyl)amino)-3-cyclopropyl-1-oxopropan-2-yl)-5-(5-chloro-2-(trifluoromethyl)phenyl)pyridine 1-oxide], in data set [4], the “aPTT (1.5x)” value worked out at 10.28 µM. For the same compound, the negative logarithm of the IC50 (pIC50) in data set [2] is 7.80; in data set [3], 6.12.

On to `O=C(O)c1ccc(NC(=O)C(CC2CC(F)C2)c2ccc(-c3c(C(F)F)ccc(Cl)c3F)c[n+]2[O-])cc1` (single isomer, unassigned) [Example 81, 2-(1-((4-carboxyphenyl)amino)-3-(3-fluorocyclobutyl)-1-oxopropan-2-yl)-5-(3-chloro-6-(difluoromethyl)-2-fluorophenyl)pyridine-1-oxide], for which the “aPTT (1.5x)” value in data set [4] was found to be 0.58 µM. In addition, the pIC50 is 8.92 in data set [2] and 8.08 in data set [3].

`O=C(O)c1ccc(NC(=O)C(CC2CC2CF)c2ccc(-c3c(C(F)F)ccc(Cl)c3F)c[n+]2[O-])cc1` (single isomer, unassigned) [Example 95, 2-(1-((4-carboxyphenyl)amino)-3-(2-(fluoromethyl)cyclopropyl)-1-oxopropan-2-yl)-5-(3-chloro-6-(difluoromethyl)-2-fluorophenyl)pyridine-1-oxide]: the “aPTT (1.5x)” value in data set [4] came out at 0.43 µM. Further, the values for the pIC50 in data set [2] and in data set [3] were 9.40 and 8.02, respectively.

As for `CC1(C)CC1CC(C(=O)Nc1ccc(C(=O)O)cc1)c1ccc(-c2c(OC(F)F)ccc(Cl)c2F)c[n+]1[O-]` (single isomer, unassigned) [Example 112, 2-(1-((4-carboxyphenyl)amino)-3-(2,2-dimethylcyclopropyl)-1-oxopropan-2-yl)-5-(3-chloro-6-(difluoromethoxy)-2-fluorophenyl)pyridine 1-oxide], the “aPTT (1.5x)” value in data set [4] was determined as 2.21 µM. The results for the pIC50 in data set [2] and in data set [3] were 9.40 and 7.67, respectively.

With `O=C(O)c1ccc(NC(=O)C(CC2CCCC2)c2ccc(-c3c(OC(F)F)ccc(Cl)c3F)c[n+]2[O-])cc1` (single isomer, unassigned) [Example 19, (R)- or (S)-4-[(2-{5-[3-chloro-6-(difluoromethoxy)-2-fluorophenyl]-1-oxidopyridin-2-yl}-3-cyclopentylpropanoyl)amino] benzoic acid], the “aPTT (1.5x)” value in data set [4] is 1.3 µM. Further, the negative-log IC50 (pIC50) in data set [2] is 9.35; in data set [3], 7.70.

For the compound `O=C(O)c1ccc(NC(=O)[C@H](CC2CC2)c2ccc(-c3c(OCC4CC4)ccc(Cl)c3F)c[n+]2[O-])cc1` [Example 13, (R)-4-[(2-{5-[3-chloro-6-(cyclopropylmethoxy)-2-fluorophenyl]-1-oxidopyridin-2-yl}-3-cyclopropylpropanoyl)amino] benzoic acid], the “aPTT (1.5x)” value in data set [4] came to 11.1 µM. Besides, the negative-log IC50 (pIC50) in data set [2] is 8.16; in data set [3], 6.01.

As to `CC1CC1C[C@@H](C(=O)Nc1ccc(C(=O)O)cc1)c1ccc(-c2c(C(F)F)ccc(Cl)c2F)c[n+]1[O-]` (single isomer, unassigned) [Example 63], in data set [4], the “aPTT (1.5x)” value amounted to 2.13 µM. For the same compound, the pIC50 in data set [2] is 9.72; in data set [3] it was 8.54.
